US3935313A, “Pharmaceutical composition containing N-(3-diethyl-aminopropyl)-4-nitro-1-oxide-pyridine-2-carboxamide and process for the treatment of hypertension therewith” (Aron-Samuel; Jan Marcel Didier, priority 1971, dated 1976)

Experiments:
[1] = system: rats made hypertensive by implantation of two 25 mg deoxycorticosterone pellets combined with a sodium enriched diet; assay: Anti-hypertensive effect in deoxycorticosterone/sodium hypertensive rats; assay type: in vivo
Description: (§1) The anti-hypertensive effect was investigated:
2. in rats made hypertensive by implantation of two 25 mg deoxycorticosterone pellets combined with a sodium enriched diet;

hypertensive subjects [2] = assay: Treatment of hypertensive subjects with the compound in combination with other anti-hypertensive materials; assay type: in vivo, Man
Description: Combinations of the compound of this invention with other anti-hypertensiveagents were also investigated.
The most important combination is that with diuretic drugs, as predicted from the efficiency data provided by the pharmacological investigation. A reduction of the dosage of compound of about 50% and/or a three-fold duration of the action are obtained.
Dosage of compound administered: 5 tablets containing 400 mg active compound daily during 30 days. Associated treatment: salt-free diet, potassium chloride, furosemide: one 40 mg tablet, 3 times a week.
Dosage of compound administered: 5 tablets containing 400 mg active material, daily during 30 days. Associated treatment: potassium chloride, altizide: 15 mg; spironolactone: 25 mg.
Treatment during one month with the compound of this invention: 4 tablets daily, containing each 400 mg active ingredient, taken two at a time, plus 4 tablets daily of α-methyl dopa, containing each 250 mg active ingredient, taken two at a time.

[3] = Chronic toxicity, 6 months, Rhesus monkeys; assay type: in vivo; conditions: up to maximum dose tested 400 mg/kg
[4] = system: patients with true hypertension; assay: Clinical experimentation involving 22 hospital patients; assay type: in vivo, Man; conditions: of 22 patients; criteria: systolic L1, diastolic L2
Description: Clinical experimentation involving 22 hospital patients.
Procedure: The patients selected suffer from true hypertension involving both systolic pressure and diastolic pressure. Before starting treatment with the compound, it was ascertained, during a period of time of 8 days, in the absence of any hypotensive treatment, that this hypertension was stable in the morning, at noon and in the evening, in standing, sitting and recumbent positions.
1. Effect on blood pressure: the result was evaluated on the basis of the blood pressure depression, expressed as cm of mercury, according to the following criteria: Result Nil Fair Good Very good __________________________________________________________________________ Systolic pressure depression 0 < 3 cm 3-4 cm > 4 cm Diastolic pressure depression 0 <1.5 cm 1.5-2 cm >2 cm __________________________________________________________________________
2. Effect on functional signs: headaches, dizziness, floating specks, ear buzzing.

[5] = system: rats made hypertensive according to Goldblatt's method; assay: Anti-hypertensive effect in Goldblatt hypertensive rats; assay type: in vivo
Excerpt: as §1
3. in rats made hypertensive according to Goldblatt's method (unilateral renal arterial constriction with contralateral nephrectomy).

[6] = Teratogenicity in rabbits; assay type: in vivo; conditions: 200 mg/kg
[7] = Chronic toxicity, 6 months, rats; assay type: in vivo; conditions: up to maximum dose tested 400 mg/kg
hypertensive subjects [8] = assay: Therapeutic effects in hypertensive subjects, compound alone
Procedure: About a hundred patients were treated with the compound during several months.
The compound was tested alone at dosages from 300 mg to 5 g daily. […] The results just set forth relate to determinations made with the patients in a recumbent position.

[9] = system: dogs made hypertensive by the bilateral destruction of the sensory endings of the sino-carotid area; assay: Anti-hypertensive effect in dogs with destroyed sino-carotid sensory endings; assay type: in vivo
Excerpt: as §1
1. in dogs made hypertensive by the bilateral destruction of the sensory endings of the sino-carotid area;

[10] = Acute toxicity (method of Lichtfield and Wilcoxon); conditions: in vivo
Excerpt: The compound used for such tests is the hydrochloride (LA 2511).

normotensive subjects = assay: Effects in normotensive subjects; assay type: in vivo, Man
Description: Prior to the therapeutic tests, toxicological and clinical pharmacological investigations were conducted in normotensive Man. […] The systolic pressure is depressed by 2 to 4 cm of mercury, while the diastolic pressure is depressed by 2 cm, on the average.
Dosage of compound administered: 1 tablet containing 400 mg active ingredient during 1 week, 2 tablets during 1 week, 3 tablets during 3 weeks.
Dosage of compound administered: 1 tablets containing 400 mg active ingredient during 3 weeks, 2 tablets during the 5 following weeks.

Teratogenicity in rats = assay type: in vivo; conditions: 600 mg/kg
hypertensive subjects [11] = assay: Treatment of a hypertensive patient with α-methyldopa alone; assay type: in vivo, Man; conditions: TRU... Yves
Description: Strong functional signs (headaches, dizziness). Treated during one month with α-methyldopa: 2, then 4, then 6 tablets per day, containing each 250 mg active ingredient.

[12] = GAU... Albert, 5 x 400 mg daily 30 days + altizide 15 mg, spironolactone 25 mg, potassium chloride, prior 21/13
[13] = GAU... Albert, + altizide, spironolactone
[14] = SUF... Auguste, 5 x 400 mg daily 30 days + furosemide 40 mg 3 times a week, potassium chloride, salt-free diet, prior 24/12
[15] = TRU... Yves, 4 x 400 mg daily + α-methyldopa 4 x 250 mg daily, one month, after α-methyldopa alone 21/111/2
[16] = combination with diuretic drugs
[17] = fraction of subjects, alone, 300 mg to 5 g daily, recumbent
[18] = more than half the subjects, alone, 300 mg to 5 g daily, recumbent
[19] = one-fourth of the patients, alone, 300 mg to 5 g daily, recumbent
[20] = use as anti-hypertensive material in Man
[21] = oral, 200 mg to 5 g daily, normotensive

CCN(CC)CCCNC(=O)c1cc([N+](=O)[O-])cc[n+]1[O-] [LA 2511, N-(3-diethylaminopropyl)-4-nitro-1-oxide-pyridine-2-carboxamide]
anti-hypertensive efficiency [1]: substantial consistent efficiency
blood pressure after treatment, standing (hypertensive subjects [2]; GAU... Albert, 5 x 400 mg daily 30 days + altizide 15 mg, spironolactone 25 mg, potassium chloride, prior 20/121/2): 14/9
blood pressure after treatment, recumbent (hypertensive subjects [2]; [12]): 16/10
blood pressure after treatment, sitting (hypertensive subjects [2]; [12]): 16/10
digestive tolerance (hypertensive subjects [2]; [13]): Fair digestive tolerance
systemic tolerance (hypertensive subjects [2]; [13]): Very good systemic tolerance
functional signs (hypertensive subjects [2]; GAU... Albert, + altizide, spironolactone, floating specks, headaches, dizziness, ear-buzzing): Improvement of the functional signs
blood pressure after treatment, sitting (hypertensive subjects [2]; [14]): 18/10
blood pressure after treatment, standing (hypertensive subjects [2]; [14]): 17/9
blood pressure after treatment, recumbent (hypertensive subjects [2]; SUF... Auguste, 5 x 400 mg daily 30 days + furosemide 40 mg 3 times a week, potassium chloride, salt-free diet, prior 24/13): 18/10
digestive and systemic tolerance (hypertensive subjects [2]; SUF... Auguste, + furosemide): Very good digestive and systemic tolerance
functional signs (hypertensive subjects [2]; SUF... Auguste, + furosemide, floating specks, headaches, ear-buzzing): Marked decrease of the functional signs
blood pressure after treatment, standing (hypertensive subjects [2]; TRU... Yves, 4 x 400 mg daily + α-methyldopa 4 x 250 mg daily, one month, after α-methyldopa alone 20/11): 18/9
blood pressure after treatment, recumbent (hypertensive subjects [2]; [15]): 19/101/2
blood pressure after treatment, sitting (hypertensive subjects [2]; [15]): 19/10
functional signs (hypertensive subjects [2]; TRU... Yves, + α-methyldopa, particularly the headaches): Marked decrease of the functional signs
duration of the action (hypertensive subjects [2]; [16]): three-fold
reduction of the dosage of compound (hypertensive subjects [2]; [16]): about 50%
efficiency of combination with diuretics (hypertensive subjects [2]; combination with diuretics): particularly efficient combination
safety of combination (hypertensive subjects [2]; combined with other anti-hypertensive materials currently used): safely be combined
toxic effect on chronic treatment [3]: no toxic effect
number of "fair" results [4]: 5 results
number of "good" and "very good" results [4]: 13 results
number of "nil" results [4]: 4 results
anti-hypertensive efficiency [5]: substantial consistent efficiency
teratogenic effect [6]: No teratogenic effect
toxic effect on chronic treatment [7]: no toxic effect
systemic tolerance (hypertensive subjects [8]; BLA... Isaac): Very good systemic tolerance
taste on intake of the tablet (hypertensive subjects [8]; BLA... Isaac): Bitter taste
blood pressure after treatment, recumbent (hypertensive subjects [8]; BLA... Isaac, 6 then 4 tablets of 400 mg daily, 15 days each, prior 20/13): 19/1
blood pressure after treatment, sitting (hypertensive subjects [8]; BLA... Isaac, 6 then 4 tablets of 400 mg daily, 15 days each, prior 20/121/2): 19/10
blood pressure after treatment, standing (hypertensive subjects [8]; BLA... Isaac, 6 then 4 tablets of 400 mg daily, 15 days each, prior 191/2/10): 141/2/10
tolerance (hypertensive subjects [8]; PER... Robert): Excellent tolerance
blood pressure after treatment, sitting (hypertensive subjects [8]; PER... Robert, 2, 4, then 6 tablets of 400 mg per day, 28 days, prior 21/12): 161/2/10
blood pressure after treatment, standing (hypertensive subjects [8]; PER... Robert, 2, 4, then 6 tablets of 400 mg per day, 28 days, prior 201/2/12): 17/10
blood pressure after treatment, recumbent (hypertensive subjects [8]; PER... Robert, 2, 4, then 6 tablets of 400 mg per day, 28 days, prior 211/2/12): 15/10
functional signs (hypertensive subjects [8]; PER... Robert, headaches, ear-buzzing): Disappearance of the functional signs
return of blood pressure to former levels after interruption (hypertensive subjects [8]; after interruption of administration): 3 to 4 days
onset of the depression (hypertensive subjects [8]; alone, 300 mg to 5 g daily): within a few hours or a few days
troublesome orthostatic hypotension induced fits of faintness (hypertensive subjects [8]; alone, 300 mg to 5 g daily): None of the subjects
blood pressure in standing position (hypertensive subjects [8]; alone, 300 mg to 5 g daily, standing): more highly depressed, becoming close to normal or even attaining the normal value
side-effect (hypertensive subjects [8]; disappear when ingested in the middle of a meal and/or dosage decreased): a few cases of gastric pains and nausea
patients with moderate depression (hypertensive subjects [8]; fraction of patients, alone, 300 mg to 5 g daily, recumbent): One-fourth
hypertensive subjects with substantial depression of the blood pressure (hypertensive subjects [8]; [17]): more than half
subjects non-influenced (hypertensive subjects [8]; [17]): Less than one-fourth
diastolic pressure depression in subjects with substantial depression (hypertensive subjects [8]; [18]): > 2 cm of mercury
systolic pressure depression in subjects with substantial depression (hypertensive subjects [8]; [18]): > 4 cm of mercury
diastolic pressure depression in patients with moderate depression (hypertensive subjects [8]; [19]): about 1 cm
systolic pressure depression in patients with moderate depression (hypertensive subjects [8]; [19]): about 2 cm
action (hypertensive subjects [8]; oral, 200 mg to 5 g daily): rapid but gradual action
toxicity and tolerance (hypertensive subjects [8]; oral, 200 mg to 5 g daily): free from toxicity, well tolerated
effects on blood pressure versus diuretic drugs, α-methyldopa and other hypotensive agents (hypertensive subjects [8]; particularly with respect to the diastolic pressure): much more rapid and much more positive
effect on the diastolic pressure in Man (hypertensive subjects [8]; [20]): well established
efficiency in Man (hypertensive subjects [8]; [20]): excellent efficiency
toxicity in Man (hypertensive subjects [8]; [20]): free from toxicity
anti-hypertensive efficiency in combination with diuretics ([9]; in combination with diuretics, stated for the experimental hypertension models together): efficiency is extended
anti-hypertensive efficiency ([9]; sino-carotid denervated hypertensive dogs): substantial consistent efficiency
LD50 [10]: 2000 mg/kg
blood pressure after treatment, recumbent, evening (normotensive subjects; CHA... Paul, 400 mg tablets, 1 for 3 weeks, 2 for 5 weeks, initial 13/8): 11/6
blood pressure after treatment, recumbent, morning (normotensive subjects; CHA... Paul, 400 mg tablets, 1 for 3 weeks, 2 for 5 weeks, initial 14/8): 12/6
tolerance (normotensive subjects; CHA... Paul, 8 weeks): Excellent tolerance
tolerance (normotensive subjects; VUI... Robert, 5 weeks): Excellent tolerance
depression of the blood pressure (normotensive subjects; [21]): moderate gradual depression
influence on the heart (normotensive subjects; [21]): No deleterious influence
systolic pressure depression (normotensive subjects; [21]): 2 to 4 cm of mercury
diastolic pressure depression (normotensive subjects; oral, 200 mg to 5 g daily, normotensive, on the average): 2 cm
depression of blood pressure under orthostatic conditions (normotensive subjects; oral, 200 mg to 5 g daily, normotensive, orthostatic): more substantial depression
modifications in the electrocardiogram and numerous biological tests (normotensive subjects; oral, 200 mg to 5 g daily, blood count, sedimentation rate, phosphatases, transaminases, azotemia, glycemia, creatinine clearance, ions, lipids etc.): No modifications were ever noted
teratogenic effect (Teratogenicity in rats): No teratogenic effect

C[C@](N)(Cc1ccc(O)c(O)c1)C(=O)O [α-methyldopa]
blood pressure after treatment with α-methyldopa, standing (hypertensive subjects [11]; 2, 4, then 6 tablets of 250 mg per day, one month, prior 22/12): 20/11
blood pressure after treatment with α-methyldopa, recumbent (hypertensive subjects [11]; 2, 4, then 6 tablets of 250 mg per day, one month, prior 23/12): 21/111/2
blood pressure after treatment with α-methyldopa, sitting (hypertensive subjects [11]; 2, 4, then 6 tablets of 250 mg per day, one month, prior 23/111/2): 21/111/2
functional signs (hypertensive subjects [11]; α-methyldopa alone, headaches, dizziness): Slight decrease of the functional signs
